Legend:
[1] = tested on: GLP1R localization with the late endosome marker LAMP1; test: GLP1R colocalization with late endosome marker LAMP1, confocal microscopy, GLP1R-HEK293 cells; format: cell-based; conditions: 100 nM, 30 min; Pearson's correlation coefficient, 3 independent experiments; Figure 6d
From the text: Nuclei were counterstained with DAPI. Nuclei were counterstained with DAPI.

[2] = tested on: GLP1R association with early endosomal-associated antigen 1 (EEA1); test: GLP1R colocalization with early endosome marker EEA1, confocal microscopy, GLP1R-HEK293 cells; format: cell-based; conditions: 100 nM, 30 min; Pearson's correlation coefficient, 3 independent experiments; Figure 5d
Experimental: For immunofluorescence microscopy, GLP1R-HEK293 cells were seeded at a density of 25,000 cells/well in 96-well imaging plates (Greiner Bio-One) coated with poly-D-lysine. […] Twenty-four hours later, the cells were washed once with Optimem + Glutamax (Thermo Fisher Scientific, Watham, MA, USA) + 0.1% bovine serum albumin (BSA) (Sigma-Aldrich, St. Louis, MO, USA), and then incubated with Optimem + 0.1% BSA for 15 min at 37 °C. Compounds were diluted in Optimem + 0.1% BSA and cell incubations were performed at 37 °C for the timepoints indicated. The compounds were removed and the cells were washed three times with phosphate-buffered saline (PBS) prior to fixation for immunofluorescence microscopy or electron microscopy/NanoSIMS as described below. […]
Analysis of confocal microscopy micrographs was performed using scripts developed in Columbus analysis software (PerkinElmer, Waltham, MA, USA). […] Mean fluorescence intensity for the GLP1R staining was measured from this cell membrane ROI. Fluorescence intensities were normalized to those measured from untreated cells and expressed as mean per cell per well. For colocalization analyses, Pearson’s correlation co-efficient was calculated for the correlation between the red and green channels and expressed as mean per cell per well. […]
Pearson’s correlation co-efficient for GLP1R colocalization with EEA1 was calculated from cytoplasmic ROIs (d). […]

exenatide
GLP1R colocalization with LAMP1 [1]: increase in the GLP1R colocalization with LAMP1 | GLP1R colocalization with EEA1 [2]: GLP1R colocalization with EEA1 was observed

From article PMC8876276 (Pharmaceutics, 2022)
